Biological target: T1, AtSWEET4 (Arabidopsis thaliana, UniProt Q944M5)
T1 sequence (Q944M5 1-251): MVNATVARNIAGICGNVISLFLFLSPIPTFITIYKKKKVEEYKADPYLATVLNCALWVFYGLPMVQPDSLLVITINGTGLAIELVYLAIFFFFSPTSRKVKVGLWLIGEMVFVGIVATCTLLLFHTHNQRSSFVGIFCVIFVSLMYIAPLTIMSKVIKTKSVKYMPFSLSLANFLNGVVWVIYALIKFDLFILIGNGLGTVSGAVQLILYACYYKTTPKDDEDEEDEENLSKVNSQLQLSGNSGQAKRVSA
Assay: […]-radiolabeled uptake in yeast EBY4000
Assay type: cell-based
Details: labelled compound; positive control; n = 3

SMILES	uptake
OC[C@H]1OC(O)[C@@H](O)[C@@H](O)[C@@H]1O (stereo partly drawn) [D-mannose]	D-mannose and D-fructose transporter AtSWEET4 serves as a positive control
OCC1(O)OC[C@@H](O)[C@@H](O)[C@@H]1O (stereo partly drawn) [D-fructose]	D-mannose and D-fructose transporter AtSWEET4 serves as a positive control

Source: paper PMC9942192 (ACS Synthetic Biology, 2023)
